Read-outs that look alike come from different tables or passages of the source.
Experiments:
[1] = target: T1, trypsin from bovine pancreas (Bos taurus, UniProt P00760); assay: In vitro trypsin-mediated release of drug from prodrug, without or with trypsin inhibitor Compound 109; type: biochemical
T1 construct: purchased Sigma-Aldrich T8003; host or cells: bovine pancreas
T1 sequence (P00760 24-246): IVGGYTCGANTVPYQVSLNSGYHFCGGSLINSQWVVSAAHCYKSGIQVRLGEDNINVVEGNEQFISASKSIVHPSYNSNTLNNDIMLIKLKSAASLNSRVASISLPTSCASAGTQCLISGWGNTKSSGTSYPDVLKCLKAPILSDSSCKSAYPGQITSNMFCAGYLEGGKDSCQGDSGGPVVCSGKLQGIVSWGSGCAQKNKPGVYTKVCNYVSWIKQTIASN
Protocol: The reactions were conducted at 37° C. for 24 hr. Samples were collected at specified time points, transferred into 0.5% formic acid in acetonitrile to stop trypsin activity and stored at less than −70° C. until analysis by LC-MS/MS.
Other reaction and sample treatment conditions were as described above.

[2] = Pharmacokinetics following IV administration of prodrug to rats; type: in vivo, rat
human μ-opioid receptor [3] = target: T2, human μ-opioid receptor (Homo sapiens, UniProt P35372); type: cell-based; parameters: expressed in transfected cells; host or cells: CHO; conditions: Experiment 3; EC50 ratio, oxycodone or hydrocodone to its prodrug
T2 sequence (P35372 whole entry): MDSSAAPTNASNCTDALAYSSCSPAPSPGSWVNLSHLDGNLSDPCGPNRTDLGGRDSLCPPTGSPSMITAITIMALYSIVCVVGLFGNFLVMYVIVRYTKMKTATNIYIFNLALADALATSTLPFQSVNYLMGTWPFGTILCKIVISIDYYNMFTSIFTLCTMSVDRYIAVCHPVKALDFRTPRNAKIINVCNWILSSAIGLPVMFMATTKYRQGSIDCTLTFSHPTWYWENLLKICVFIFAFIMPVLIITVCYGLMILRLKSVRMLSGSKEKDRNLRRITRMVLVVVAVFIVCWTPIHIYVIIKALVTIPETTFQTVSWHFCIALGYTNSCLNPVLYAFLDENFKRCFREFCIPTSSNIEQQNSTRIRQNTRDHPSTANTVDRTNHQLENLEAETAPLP
Protocol: The control reaction included 1 μM DAMGO. The reaction mixtures were incubated at 37° C. for 10 min, and the reaction product was cyclic AMP (cAMP). The samples were submitted to homogeneous time resolved fluorescence (HTRF®). EC50 values (concentration producing a half-maximal specific response) were determined by non-linear regression fit using the Hillplot software.

[4] = In vitro stability of prodrug to household chemicals and enzyme preparations; type: physicochemical; conditions: vodka, baking soda, WINDEX, vinegar (RT or 80° C.) and GNC Super Digestive, tenderizer, subtilisn (RT), 1 or 24 hr
Protocol: (§1) Samples were incubated as described and aliquots removed at 1 hr and 24 hr and stabilized by adding each to a solution of 50% or 100% of 85% phosphoric acid solution to achieve a final pH of less than or equal to pH 4. The stabilized aliquots were then diluted 4- to 6-fold with water, vortex-mixed and applied to HPLC.
as §1, with “described. Aliquots were” for “described and aliquots”

[5] = Pharmacokinetics following PO administration to rats (drug released into plasma from prodrug, or oxycodone); type: in vivo, rat; conditions: for oxycodone plasma concentrations compared to administration of oxycodone: PO prodrug versus PO oxycodone 10 mg/kg (Example 15)
Protocol: At specified time points, blood samples were drawn, harvested for plasma via centrifugation at 5,400 rpm at 4° C. for 5 min, and 100 microliters (μl) plasma transferred from each sample into a fresh tube containing 1 μl of formic acid. The tubes were vortexed for 5-10 seconds, immediately placed in dry ice and then stored until analysis by high performance liquid chromatography/mass spectrometry (HPLC/MS).
At specified time points, blood samples were drawn, harvested for plasma via centrifugation at 5,400 rpm at 4° C. for 5 min, and 100 microliters (μl) plasma transferred from each sample into a fresh tube containing 2 μl of 50% formic acid. The tubes were vortexed for 5-10 seconds, immediately placed in dry ice and then stored in −80° C. freezer until analysis by HPLC/MS.
At specified time points, blood samples were drawn, harvested for plasma via centrifugation at 5,400 rpm at 4° C. for 5 min, and 100 μl plasma transferred from each sample into a fresh tube containing 2 μl of 50% formic acid. The tubes were vortexed for 5-10 seconds, immediately placed in dry ice and then stored in −80° C. freezer until analysis by HPLC/MS.

human μ-opioid receptor [6] = target: T2, human μ-opioid receptor; assay: In vitro human μ-opioid receptor binding assay ([3H]DAMGO, recombinant HEK-293 cells); conditions: from Table 8
[7] = In vivo tolerability of Compound KC-3 IV in rats; parameters: species or system rat; conditions: IV KC-3 71 mg/kg (97 μmol/kg), 4 rats dosed, observed up to 24 hours
Protocol: Male naïve Sprague-Dawley rats, 4 per dose, were used in the study. Rats were weighed, and then placed under a heat lamp for 15-20 minutes to dilate the lateral tail veins. […] Before dosing, rats were placed in Broome restrainers and the drug was introduced into one of the tail veins using a syringe and needle. […] Blood samples were collected 5 minutes post-dose via the saphenous vein. The rats were observed up to 24 hours.

[8] = 241 BAEE U trypsin/mL, no inhibitor
[9] = 4815 BAEE U trypsin/mL, no inhibitor
[10] = rats, IV Compound KC-2 10 mg/kg or equimolar oxycodone, 15 minutes

COc1ccc2c3c1OC1C(OC(=O)N(C)CCNC(=O)C(CCCNC(=N)N)NC(=O)CC(=O)O)=CCC4C(C2)N(C)CCC314 [Compound KC-4, N—((S)-1-{2-[(Dihydrocodein-6-enyloxycarbonyl)-methylamino]-ethylcarbamoyl-4-guanidino}-butyl)-malonamic acid]
Rate of hydrocodone formation [1, 8]: 0.0911 ± 0.015 umol/h/ BAEE U | Rate of hydrocodone formation [1, 9]: 0.0137 ± 0.0014 umol/h/ BAEE U | KC-4 Cmax ± sd ([2]; IV KC-4 2 mg/kg ([…])): 3960 ± 570 ng/mL | Drug/prodrug relative potency (human μ-opioid receptor [3]): 15

COc1ccc2c3c1O[C@H]1C(OC(=O)N(C)CCNC(=O)[C@H](CCCNC(=N)N)NC(C)=O)=CC[C@@]4(O)C(C2)N(C)CC[C@]314 [Compound KC-2, Oxycodone 6-(N-methyl-N-(2-N′-acetylarginylamino)) ethylcarbamate]
relative plasma/CSF partitioning coefficient to oxycodone (fold less CSF penetrant than oxycodone) (Table 10, 439/3.8): about 116 fold | Compound conc. in Plasma (male, Sprague Dawley, rat, in vivo): 27,200 ng/mL | Compound conc. in CSF [10]: 61.9 ng/mL | Plasma/CSF partitioning coefficient [10]: 439 | conversion to oxycodone [4]: less than 10% | Rate of oxycodone formation ([1]; no trypsin inhibitor, 0.761 mM prodrug, 0.0228 mg/mL trypsin, 37° C.): 37.4 ± 0.9 umols/h/umol trypsin | plasma concentrations of oxycodone versus Compound KC-2 dose ([5]; PO 1.3 to 50 mg/kg, Table 6, FIG. 9): increase proportionally | oxycodone plasma concentrations compared to administration of oxycodone [5]: suppressed Cmax and delayed Tmax | affinity for the μ-opioid receptor, fold less than that of oxycodone (human μ-opioid receptor [6]): about 2 fold | Cmax of Compound KC-2 in plasma ([2]; IV Compound KC-2 2 mg/kg, average ± sd, 4 rats): 2680 ± 755 ng/mL

COc1ccc2c3c1O[C@H]1C(OC(=O)N(C)CCNC(=O)[C@H](CCCNC(=N)N)NC(=O)CC(=O)O)=CC[C@@]4(O)[C@@H](C2)N(C)CC[C@]314 [Compound KC-3, N—{(S)-4-guanidino-1-[2-(methyl-[(5R,9R,13S,14S)-4,5a-epoxy-6,7-didehydro-14-hydroxy-3-methoxy-17-methylmorphinan-6-oxy]carbonyl-amino)-ethylcarbamoyl]-butyl}-malonamic acid]
relative plasma/CSF partitioning coefficient to oxycodone (fold less CSF penetrant than oxycodone) (Table 15, 1,737/4.8): about 364 fold | Rate of oxycodone formation [1, 8]: 0.0684 ± 0.0009 umol/h/ BAEE U | Clinical observations [7]: 2 normal and 2 with ataxia which | plasma concentrations of oxycodone versus Compound KC-3 dose ([5]; PO 1.4 to 46 mg/kg, Table 11, FIG. 11): increase proportionally

COc1ccc2c3c1O[C@H]1C(OC(=O)N(C)C[C@H](NC(=O)[C@H](CCCNC(=N)N)NC(C)=O)C(=O)N(C)CC(=O)O)=CC[C@@]4(O)[C@@H](C2)N(C)CC[C@]314 [Compound KC-6]
relative plasma/CSF partitioning coefficient to oxycodone (fold less CSF penetrant than oxycodone) (Table 25, 815/4.8): about 171 fold | Rate of oxycodone formation [1, 8]: 0.0118 ± 0.0042 umol/h/ BAEE U | Rate of oxycodone formation [1, 9]: 0.00571 ± 0.0002 umol/h/ BAEE U | oxycodone plasma concentrations compared to administration of oxycodone [5]: suppressed Cmax and AUC and delayed Tmax

COc1ccc2c3c1O[C@H]1C(OC(=O)N(CCCCCC(=O)O)CCNC(=O)[C@H](CCCNC(=N)N)NC(C)=O)=CC[C@@]4(O)[C@@H](C2)N(C)CC[C@]314 [Compound KC-5, 6-{[2-(2-Acetylamino-5-guanidino-pentanoylamino)-ethyl]-[(5R,9R,13S,14S)-4,5a-epoxy-6,7-didehydro-14-hydroxy-3-methoxy-17-methylmorphinan-6-oxy]-1-enyloxycarbonyl-amino}-hexanoic acid]
relative plasma/CSF partitioning coefficient to oxycodone (fold less CSF penetrant than oxycodone) (Table 22, 1,508/4.8): about 316 fold | Rate of oxycodone formation [1, 8]: 0.135 ± 0.005 umol/h/ BAEE U | oxycodone plasma concentrations compared to administration of oxycodone [5]: suppressed Cmax and AUC and delayed Tmax
